In PMC11320730, “5-Methoxy-2-aminoindane Reverses Diet-Induced Obesity and Improves Metabolic Parameters in Mice: A Potential New Class of Antiobesity Therapeutics” (ACS Pharmacology & Translational Science, 2024):

Experiments:
MAO-B = test system: MAO-B; design: method as in PMID 29458138; conditions: cited from earlier work
DIO C57BL/6 mice [1] = test: Effect of MEAI on obesity: body weight and body composition (EchoMRI) in DIO mice; assay type: in vivo; conditions: 28 days
Protocol: (§1) Male C57BL/6 mice were used to establish DIO by feeding them a high-fat diet (HFD; 60% cal/L fat, 20% cal/L protein, and 20% cal/L carbohydrates; Research Diet, D12492) for 18 weeks. After this period, mice were treated with either vehicle (sterile water, N = 8) or MEAI (N = 11) daily for 28 days by gavage at a dose of 40 mg/kg/day. Age-matched control mice (N = 10) on a standard diet (STD; 14% kcal fat, 24% kcal protein, 62% kcal carbohydrates; NIH-31 rodent diet) received vehicle daily. The body weight of all mice was monitored daily, and total body fat and lean mass were determined by EchoMRI-100H (Echo Medical Systems LLC, Houston, Texas, USA). On day 29, at the end of the experimental period, mice were euthanized by a cervical dislocation under anesthesia. The kidneys, brain, liver, and fat pads were removed and weighed, and samples were either snap-frozen or fixed in buffered 4% formalin. Trunk blood was collected to determine the biochemical parameters.

5-HT1A receptor = biological target: 5-HT1A receptor; design: method as in PMID 30904940; conditions: cited from earlier work
MAO-A = test system: MAO-A; design: method as in PMID 29458138; conditions: cited from earlier work
[2] = test system: hepatic lipid metabolism genes; test: Real-time PCR of liver mRNA in DIO mice; assay type: in vivo; conditions: 40 mg/kg/day
Protocol: as §1
mRNA from livers was extracted using a Bio-Tri RNA lysis buffer (Bio-Lab, Israel), followed by DNase I treatment (Thermo Scientific, Illinois, USA), and reverse transcribed using the qScript cDNA Synthesis kit (Quantabio, Beverly, Massachusetts, USA). Real-time PCR was performed using an iTaq Universal SYBR Green Supermix (Bio-Rad, California, USA) and the CFX connect ST system (Bio-Rad, California, USA). The full list of primers is available as Table S1.

DIO C57BL/6 mice [3] = test: Blood biochemistry in DIO mice; assay type: in vivo; conditions: 40 mg/kg/day
Protocol: as §1
Serum levels of alanine aminotransferase (ALT), aspartate aminotransferase (AST), alkaline phosphatase (ALP), cholesterol, triglycerides, high-density lipoprotein (HDL), and low-density lipoprotein (LDL) were quantified post-termination using the Cobas C-111 chemistry analyzer (Roche, Switzerland). Fasting blood glucose was measured using the Contour glucometer (Bayer, Pittsburgh, Pennsylvania, USA), while serum insulin was determined using an Ultra-Sensitive Mouse Insulin ELISA kit (Cat# 90080, Crystal Chem, Inc., Elk Grove Village, Illinois, USA). Serum-free fatty acid content was determined using a Free Fatty Acid Assay Kit (Cat# ab65341, Abcam, Cambridge, UK).

5-HT2B [4] = biological target: T1, 5-HT2B (Homo sapiens, UniProt P41595); test: 5-HT2B calcium influx assay (agonist) in BA/F3 cells; assay type: cell-based; design: host or cells: BA/F3 cells
T1 sequence (P41595 whole entry): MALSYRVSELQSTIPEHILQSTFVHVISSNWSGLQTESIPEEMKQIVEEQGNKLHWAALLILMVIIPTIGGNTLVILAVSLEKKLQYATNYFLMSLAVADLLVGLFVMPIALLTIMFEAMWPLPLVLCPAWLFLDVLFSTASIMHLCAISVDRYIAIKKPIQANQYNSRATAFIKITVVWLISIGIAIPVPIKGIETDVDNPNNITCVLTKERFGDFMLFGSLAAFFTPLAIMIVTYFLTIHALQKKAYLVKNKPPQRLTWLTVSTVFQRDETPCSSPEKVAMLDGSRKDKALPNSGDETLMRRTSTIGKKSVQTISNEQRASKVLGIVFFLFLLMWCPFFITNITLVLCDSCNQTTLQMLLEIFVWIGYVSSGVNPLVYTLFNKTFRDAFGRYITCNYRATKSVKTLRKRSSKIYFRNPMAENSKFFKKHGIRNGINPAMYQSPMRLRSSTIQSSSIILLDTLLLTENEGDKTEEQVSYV

5-HT2B receptor = biological target: 5-HT2B receptor; design: method as in PMID 30904940; conditions: cited from earlier work
[5] = test system: serotonin transporter (SERT); design: method as in PMID 30904940; conditions: cited from earlier work
5-HT2B [6] = biological target: T1, 5-HT2B; test: Ligand binding assay (Eurofins); design: Eurofins (contract screening service); conditions: read-out: inhibitory activity (% inhibition of the binding of a specific ligand)
Protocol: (§2) MEAI at 10 μM was tested in ligand binding assays at Eurofins Inc., as described previously.[20] Compound binding was calculated as a % inhibition of the binding of a ligand specific for each target. Results showing an inhibition or stimulation higher than 50% are considered to represent significant effects of MEAI. In each experiment, and if applicable, the respective reference compound was tested concurrently with MEAI and the data were compared with historical values determined at Eurofins. The experiment was accepted in accordance with the Eurofins validation Standard Operating Procedure.

5-HT2A = biological target: T2, 5-HT2A (Homo sapiens, UniProt P28223); test: Ligand binding assay (Eurofins); conditions: read-out: inhibitory activity (% inhibition of the binding of a specific ligand)
T2 construct: Eurofins (contract screening service)
T2 sequence (P28223 whole entry): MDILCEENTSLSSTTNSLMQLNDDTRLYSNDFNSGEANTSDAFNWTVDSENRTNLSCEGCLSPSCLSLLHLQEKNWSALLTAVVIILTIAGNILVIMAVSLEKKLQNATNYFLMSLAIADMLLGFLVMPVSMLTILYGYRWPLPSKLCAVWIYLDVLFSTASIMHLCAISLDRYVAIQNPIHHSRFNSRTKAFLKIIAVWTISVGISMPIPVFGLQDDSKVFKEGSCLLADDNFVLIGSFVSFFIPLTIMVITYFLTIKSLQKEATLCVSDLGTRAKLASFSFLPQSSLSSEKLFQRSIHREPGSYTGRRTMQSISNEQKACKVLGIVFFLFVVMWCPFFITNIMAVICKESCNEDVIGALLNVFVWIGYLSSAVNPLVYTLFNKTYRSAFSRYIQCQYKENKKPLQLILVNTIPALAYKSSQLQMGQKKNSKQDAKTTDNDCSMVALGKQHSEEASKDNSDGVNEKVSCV
Protocol: as §2

5-HT1A = biological target: T3, 5-HT1A (Homo sapiens, UniProt P08908); test: Ligand binding assay (Eurofins); conditions: read-out: inhibitory activity (% inhibition of the binding of a specific ligand)
T3 construct: Eurofins (contract screening service)
T3 sequence (P08908 whole entry, species assumed): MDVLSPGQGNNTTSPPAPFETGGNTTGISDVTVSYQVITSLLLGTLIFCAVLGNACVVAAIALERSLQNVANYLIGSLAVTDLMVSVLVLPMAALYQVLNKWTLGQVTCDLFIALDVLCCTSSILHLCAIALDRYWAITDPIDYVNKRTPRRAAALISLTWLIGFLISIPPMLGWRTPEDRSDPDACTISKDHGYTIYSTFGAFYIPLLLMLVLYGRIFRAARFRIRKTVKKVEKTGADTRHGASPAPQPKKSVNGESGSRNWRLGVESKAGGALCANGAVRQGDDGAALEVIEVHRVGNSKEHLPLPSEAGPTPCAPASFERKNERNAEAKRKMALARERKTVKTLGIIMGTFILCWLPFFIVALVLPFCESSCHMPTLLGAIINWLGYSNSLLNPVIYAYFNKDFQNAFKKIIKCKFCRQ
Protocol: as §2

MAO-A enzyme = biological target: T4, MAO-A enzyme (Homo sapiens, UniProt P21397); test: Ligand binding assay (Eurofins); conditions: read-out: inhibitory activity (% inhibition of the binding of a specific ligand)
T4 construct: Eurofins (contract screening service)
T4 sequence (P21397 whole entry, species assumed): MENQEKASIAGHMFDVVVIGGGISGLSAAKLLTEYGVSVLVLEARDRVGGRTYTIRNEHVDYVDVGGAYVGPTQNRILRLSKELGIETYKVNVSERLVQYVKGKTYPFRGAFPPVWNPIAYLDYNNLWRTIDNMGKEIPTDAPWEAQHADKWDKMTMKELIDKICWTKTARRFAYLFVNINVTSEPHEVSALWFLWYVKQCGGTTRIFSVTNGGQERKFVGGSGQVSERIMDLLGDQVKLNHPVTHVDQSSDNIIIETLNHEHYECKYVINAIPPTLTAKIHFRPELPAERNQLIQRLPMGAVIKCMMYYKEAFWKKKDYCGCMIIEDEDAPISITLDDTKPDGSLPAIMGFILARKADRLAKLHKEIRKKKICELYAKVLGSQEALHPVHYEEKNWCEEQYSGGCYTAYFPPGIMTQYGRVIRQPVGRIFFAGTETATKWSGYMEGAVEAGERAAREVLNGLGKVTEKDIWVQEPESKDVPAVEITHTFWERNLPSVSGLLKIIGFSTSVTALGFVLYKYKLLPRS
Protocol: as §2

dopamine D2 receptor = biological target: T5, dopamine D2 receptor (Homo sapiens, UniProt P14416); test: Ligand binding assay (Eurofins); conditions: read-out: inhibitory activity (% inhibition of the binding of a specific ligand)
T5 construct: Eurofins (contract screening service)
T5 sequence (P14416 whole entry, species assumed): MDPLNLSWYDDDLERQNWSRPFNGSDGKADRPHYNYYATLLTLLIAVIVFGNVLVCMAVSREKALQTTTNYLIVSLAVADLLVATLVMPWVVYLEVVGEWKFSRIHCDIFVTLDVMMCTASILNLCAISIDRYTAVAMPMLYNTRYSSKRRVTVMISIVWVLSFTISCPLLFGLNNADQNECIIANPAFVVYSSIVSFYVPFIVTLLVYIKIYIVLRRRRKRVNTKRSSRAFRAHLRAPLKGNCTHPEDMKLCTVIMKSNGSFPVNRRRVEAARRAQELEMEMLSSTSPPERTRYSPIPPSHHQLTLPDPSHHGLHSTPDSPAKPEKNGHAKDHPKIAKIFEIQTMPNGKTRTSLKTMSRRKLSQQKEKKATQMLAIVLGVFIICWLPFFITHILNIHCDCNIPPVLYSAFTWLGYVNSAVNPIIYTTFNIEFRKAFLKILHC
Protocol: as §2

## COc1ccc2c(c1)CC(N)C2.Cl (centres unmarked) [MEAI, 2,3-Dihydro-5-methoxy-1H-inden-2-amine hydrochloride]
MAO-B
  binding inhibition: unaffected
DIO C57BL/6 mice [1]; DIO mice, 40 mg/kg/day by gavage, compared to obese vehicle-treated group
  decrease in total body weight: ~15%
DIO C57BL/6 mice [1]; DIO mice, 40 mg/kg/day
  adiposity associated with obesity: reduced
  lean body mass ratio: maintaining
  net lean mass: maintaining
  overall fat mass: reducing
DIO C57BL/6 mice [1]; HFD-fed (DIO) mice, 40 mg/kg/day by gavage
  body weight: significantly reduced
5-HT1A receptor
  Ki: 2.5 µM
MAO-A
  binding inhibition: unaffected
[2]
  7-dehydrocholesterol reductase (Dhcr) expression: no significant changes
  Acaca mRNA expression: significantly decreased
  Crebp expression: did not affect
  Dgat2 expression: did not affect
  Fabp1 mRNA expression: significantly decreased
  Fasn mRNA expression: significantly decreased
  G6pdx mRNA expression: significantly decreased
  Hmgcr expression: no significant changes
  LDL receptor (Lldr) expression: no significant changes
  Nr1h3 expression: no significant changes
  Pparg expression: did not affect
  Scd1 mRNA expression: significantly decreased
  Srebp1 expression: did not affect
  hormone-sensitive lipase (Hsl) mRNA expression: no significant changes
[2]; p < 0.05
  Cd36 mRNA expression: significantly downregulated
  lipoprotein lipase (Lpl) mRNA level: significant decrease
DIO C57BL/6 mice [3]
  insulin levels: reduced
DIO C57BL/6 mice [3]; 28 days, vs HFD vehicle
  circulating leptin levels: effectively countered the HFD-induced elevation
  serum serotonin levels: did not significantly alter
DIO C57BL/6 mice [3]; across all groups
  circulating levels of adiponectin: remained unchanged
  circulating triglyceride levels: remained largely unchanged
DIO C57BL/6 mice [3]; serum
  HDL levels: without a significant change
  HDL-to-LDL ratio: positive shift
  free fatty acids: trend toward reduced
DIO C57BL/6 mice [3]; serum, did not reach statistical significance
  total cholesterol levels: downward trend
DIO C57BL/6 mice [3]; serum, vs HFD vehicle
  LDL: significant decrease
DIO C57BL/6 mice [3]; serum, vs HFD-vehicle
  ALP levels: significantly reduced
  ALT levels: did not significantly alter
  AST levels: did not significantly alter
5-HT2B [4]; BaF3, read-out: maximum response, calcium flux (percent of control response to serotonin at 0.25 μM), cytosolic Ca2+ mobilization, agonist mode
  Emax: 18.6%
5-HT2B [4]; calcium flux
  agonist activity at the 5-HT2B receptor: did not act as an agonist
5-HT2B receptor
  Ki: 4.79 µM
[5]
  interaction with transporter: interacts
5-HT2B [6]
  inhibition at 10 µM: > 50%
5-HT2A
  inhibition at 10 µM: > 50%
5-HT1A
  inhibition at 10 µM: > 50%
MAO-A enzyme
  inhibition at 10 µM: > 50%
Dopamine D2 receptor
  inhibition at 10 µM: > 50%
